Laboratory results reported in patent US5674876A, “.rho.-heteroatom-substituted phenols and uses thereof” (Research Development Foundation, priority 1995, dated 1997).

Experiments:
Format in all cases: cell-based
Design in all cases: key to Inhibition (%) of DNA synthesis: TOXIC (viability): TOXIC: the compound at this concentration killed the cells or greatly lowered their viability
[1] = system: MDA MB 435 (Metastic Human Breast Cancer Cell Line); test: Inhibition of DNA synthesis (3H-TdR uptake) / proliferation, MB-435; settings: for inhibition at 0.1 µg/mL / inhibition at 1 µg/mL / inhibition at 5 µg/mL / inhibition at 10 µg/mL / inhibition at 20 µg/mL: Homo sapiens, MDA-MB-435; for inhibition at 0.1 µg/mL: MB-435, 0.1 μg/mL; for inhibition at 0.1 µg/mL / inhibition at 1 µg/mL / inhibition at 5 µg/mL / Inhibition (%) of DNA synthesis: TOXIC (viability) / inhibition at 10 µg/mL / inhibition at 20 µg/mL: 48 h; for inhibition at 1 µg/mL: MB-435, 1 μg/mL
Experimental: (§1) Cells were cultured in the following media: 1) MDA MB 435 cells were cultured in Minimum Essential Media (MEM-HyClone, Logan, Utah) supplemented with 5% heat inactivated fetal bovine serum (HyClone), 2 mM glutamine (Sigma, St. Louis, Mo.), 1 mM sodium pyruvate (Sigma), 1X MEM Non-Essential Amino Acids (Sigma), 2X MEM Vitamins (Sigma), and 100 IU/mL penicillin/100 μg/mL streptomycin (HyClone); 2) MCF-7 McGuire cells were cultured in Minimum Essential Media (MEM-HyClone, Logan, Utah) supplemented with 5% heat inactivated fetal bovine serum (HyClone), 2 mM glutamine (Sigma, St. Louis, Mo.), and 100 IU/mL penicillin/100 μg/mL streptomycin (HyClone); 3) HL-60 cells were cultured in Iscoves Modified Dulbecco's Media (IMDM-HyClone, Logan, Utah) supplemented with 5% heat inactivated fetal bovine serum (HyClone), 2 mM glutamine (Sigma, St. Louis, Mo.), 1 mM sodium pyruvate (Sigma), 1X MEM Non-Essential Amino Acids (Sigma), 2X MEM Vitamins (Sigma), and 100 IU/mL penicillin/100 μg/mL streptomycin (HyClone); 2) MCF-7 McGuire cells were cultured in Minimum Essential Media (MEM-HyClone, Logan, Utah) supplemented with 5% heat inactivated fetal bovine serum (HyClone), 2 mM glutamine (Sigma, St. Louis, Mo.), and 100 IU/mL penicillin/100 μg/mL streptomycin (HyClone); 3) HL-60 cells were cultured in Iscoves Modified Dulbecco's Media (IMDM-HyClone, Logan, Utah) supplemented with 5% heat inactivated fetal bovine serum (HyClone), 2 mM glutamine (Sigma, St. Louis, Mo.), and 100 IU/mL penicillin/100 μg/mL streptomycin (HyClone).
(§2) All compounds were handled as if they were light sensitive. All compounds were initially dissolved in absolute ethanol and subsequently diluted to a final concentration of 0.5% ethanol with the appropriate medium.
(§3) For the bioassay, all cells were used at 2.5×10^5 /mL. Cells were treated with each of the compounds at concentrations of 20, 10, 5, 1, 0.1, and 0.01 μg/mL , and 200 μl of each treatment group were plated in quadruplicate in a 96 well culture plate (Corning, Corning N.Y.). Plates were done in duplicate, one plate to be used for viability testing and the other plate to examine ^3 H-TdR uptake (DNA synthesis).
(§4) Plates were cultured for 48 hours at 37° C., 5% CO2. Eight hours prior to the end of incubation, ^3 H-TdR was added to one of the duplicate plates and incubation continued for 8 hours. The cells were then harvested (trypsinization was required to harvest MDA MB 435 and MCF-7 McGuire). At the end of the incubation, the cells were removed from the wells (of the duplicate plate--no radioisotope added) and viability checked by the Trypan Blue Exclusion method. Percent viability and percent suppression of each treatment group were calculated.
(§5) With respect to the data shown in the Tables below, the data is arranged from greatest percent inhibition of DNA synthesis to lowest. […] "NT" refers to "Not Tested". The cells were cultured for 48 hours, pulsed 8 hours with tritiated thymidine, harvested and counted. MDA MB 435 is the abbreviation for the Metastic Human Breast Cancer Cell Line. MCF-7 McGuire is the abbreviation for the Estrogen Responsive Human Breast Cancer Cell Line and HL-60 is the Human Promyelocytic Leukemia Cell Line.

[2] = system: MCF-7 McGuire (Estrogen Responsive Human Breast Cancer Cell Line); test: Inhibition of DNA synthesis (3H-TdR uptake) / proliferation, MCF-7; settings: for inhibition at 0.1 µg/mL / inhibition at 1 µg/mL / inhibition at 5 µg/mL / inhibition at 10 µg/mL / inhibition at 20 µg/mL: Homo sapiens, MCF7; for inhibition at 0.1 µg/mL: MCF-7, 0.1 μg/mL; for inhibition at 1 µg/mL: MCF-7, 1 μg/mL
Experimental: as §1, §2, §3, §4, §5

[3] = system: HL-60 (Human Promyelocytic Leukemia Cell Line); test: Inhibition of DNA synthesis (3H-TdR uptake) / proliferation, HL-60; settings: for effect on HL-60 cells (in words): HL-60, no dose stated; for inhibition at 0.1 µg/mL / inhibition at 1 µg/mL / inhibition at 5 µg/mL / inhibition at 10 µg/mL / inhibition at 20 µg/mL: Homo sapiens; for inhibition at 0.1 µg/mL: HL-60, 0.1 μg/mL; for inhibition at 1 µg/mL: HL-60, 1 μg/mL; for inhibition at 5 µg/mL: HL-60, 5 μg/mL
Experimental: as §1, §2, §3, §4, §5

Structure (SMILES) | inhibition at 0.1 µg/mL [1] [%] | inhibition at 1 µg/mL [1] [%] | inhibition at 5 µg/mL ([1]; MB-435, 5 μg/mL) [%] | inhibition at 0.1 µg/mL ([2]; 48 h) [%] | inhibition at 1 µg/mL ([2]; 48 h) [%] | inhibition at 5 µg/mL ([2]; MCF-7, 5 μg/mL, 48 h) [%] | inhibition at 10 µg/mL ([2]; MCF-7, 10 μg/mL, 48 h) [%] | inhibition at 0.1 µg/mL ([3]; 48 h) [%] | inhibition at 1 µg/mL ([3]; 48 h) [%] | inhibition at 5 µg/mL ([3]; 48 h) [%] | inhibition at 10 µg/mL ([3]; HL-60, 10 μg/mL, 48 h) [%] | inhibition at 10 µg/mL ([1]; MB-435, 10 μg/mL) [%] | inhibition at 20 µg/mL ([1]; MB-435, 20 μg/mL) [%] | inhibition at 20 µg/mL ([2]; MCF-7, 20 μg/mL, 48 h) [%] | inhibition at 20 µg/mL ([3]; HL-60, 20 μg/mL, 48 h) [%] | inhibition of proliferation (in words) ([3]; HL-60, 20 μg/mL) | other results
CC(=O)Oc1c(C)c2c3c(c1C)CCCN3CCC2 [Compound 6, 9-Acetoxy-8,10-dimethyljulolidine] | 3 | 0 | 80 | 0 | 10 | 13 | 37 | 3 | 24 | 59 | 89 | – | – | – | – | – | inhibition of proliferation (in words) ([1]; MB-435, 5 μg/mL): significantly inhibited the proliferation; Inhibition (%) of DNA synthesis: TOXIC (viability) ([1]; MB-435, 10 μg/mL): TOXIC; Inhibition (%) of DNA synthesis: TOXIC (viability) ([1]; MB-435, 20 μg/mL): TOXIC; inhibition of proliferation (in words) ([1]; MB-435, 10-20 μg/mL): significantly inhibited the proliferation; inhibition of proliferation (in words) ([2]; MCF-7, 10 μg/mL): significantly inhibited the proliferation; Inhibition (%) of DNA synthesis: TOXIC (viability) ([2]; MCF-7, 20 μg/mL, 48 h): TOXIC; inhibition of proliferation (in words) ([2]; MCF-7, 10-20 μg/mL): significantly inhibited the proliferation; inhibition of proliferation (in words) ([3]; HL-60, 10 μg/mL): significantly inhibited the proliferation; Inhibition (%) of DNA synthesis: TOXIC (viability) ([3]; HL-60, 20 μg/mL, 48 h): TOXIC; effect on HL-60 cells (in words) [3]: virtually no effect
Cc1cc2c(c(C)c1O)C(C)CN2C(=O)C(C)C (stereo not drawn) [Compound 11b, N-Isobutyryl-5-hydroxy-3,4,6-trimethylindoline] | 0 | 21 | 21 | 24 | 26 | 47 | 33 | 0 | 0 | 0 | 0 | 22 | 36 | 53 | 0 | – | inhibition of proliferation (in words) ([1]; MB-435, 10 μg/mL): significantly inhibited the proliferation; inhibition of proliferation (in words) ([2]; MCF-7, 5 μg/mL): significantly inhibited the proliferation; effect on HL-60 cells (in words) [3]: virtually no effect
Cc1cc2c(c(C)c1O)C(C)CN2C(=O)C(C)(C)C (stereo not drawn) [Compound 11c, N-Pivaloyl-5-hydroxy-3,4,6-trimethylindoline] | 13 | 12 | 20 | 18 | 1 | 9 | 31 | 0 | 0 | 0 | 0 | 12 | 31 | 43 | 0 | – | –
CC(=O)Oc1c(C)cc2c(c1C)C(C)CN2C(=O)C(C)C (stereo not drawn) [Compound 12b, N-Isobutyryl-5-acetoxy-3,4,6-trimethylindoline] | 1 | 19 | 32 | 20 | 47 | 38 | 58 | 0 | 2 | 32 | 67 | 24 | 41 | 70 | 46 | – | inhibition of proliferation (in words) ([1]; MB-435, 5-20 μg/mL): significantly inhibited the proliferation; inhibition of proliferation (in words) ([2]; MCF-7, 5-20 μg/mL): significantly inhibited the proliferation; inhibition of proliferation (in words) ([3]; HL-60, 5-20 μg/mL): significantly inhibited the proliferation
COc1c(C)cc2c(c1C)C(C)CN2C(=O)C(C)C (stereo not drawn) [Compound 13, N-Isobutyryl-5-methoxy-3,4,6-trimethylindoline] | 4 | -4 | 8 | – | – | – | – | 0 | 10 | 15 | 27 | 17 | 45 | – | 53 | inhibited the proliferation | inhibition of proliferation (in words) ([1]; MB-435, 20 μg/mL): inhibited the proliferation
CC(=O)N1CC(C)(C)c2c1cc(C)c(O)c2C [Compound 16, N-Acetyl-5-hydroxy-3,3,4,6-tetramethylindoline] | 0 | 1 | 9 | – | – | – | – | 0 | 0 | 11 | 11 | 18 | 31 | – | 15 | – | inhibition of proliferation (in words) ([1]; MB-435, 5-20 μg/mL): significantly inhibited the proliferation; inhibition of proliferation (in words) ([3]; HL-60, 5-20 μg/mL): significantly inhibited the proliferation
Cc1cc2c(c(C)c1O)C(C)(C)CN2C(=O)C(C)(C)C [Compound 20, N-Pivaloyl-5-hydroxy-3,3,4,6-tetramethylindoline] | -1 | -5 | -1 | – | – | – | – | 2 | 6 | 18 | 33 | -13 | 31 | – | 63 | inhibited the proliferation | inhibition of proliferation (in words) ([1]; MB-435, 20 μg/mL): inhibited the proliferation
CC(C)(C)c1cc2c(c(C(C)(C)C)c1O)CC(=O)O2 [Compound 24, 4,6-Di-tert-butyl-2,3-dihydro-5-hydroxy-2(3H)-benzofuranone] | 13 | 5 | 29 | 0 | 4 | 25 | 85 | 7 | 0 | 5 | 30 | 85 | 97 | 97 | 47 | significantly inhibited the proliferation | inhibition of proliferation (in words) ([1]; MB-435, 10 μg/mL): significantly inhibited the proliferation; inhibition of proliferation (in words) ([2]; MCF-7, 10 μg/mL): significantly inhibited the proliferation
